Experiment: Log P by HPLC on reversed phase columns (EEC directive 79/831 Annex V.A8)
Type: physicochemical
Conditions: reversed phase HPLC column; method [a]: LC-UV, acidic range, 0.1% formic acid in water and acetonitrile as eluent (linear gradient 10% to 95% acetonitrile)
Protocol: Measurement of Log P values was performed according to EEC directive 79/831 Annex V.A8 by HPLC (High Performance Liquid Chromatography) on reversed phase columns with the following methods: • ^[a] Log P value is determined by measurement of LC-UV, in an acidic range, with 0.1% formic acid in water and acetonitrile as eluent (linear gradient from 10% acetonitrile to 95% acetonitrile). • ^[b] Log P value is determined by measurement of LC-UV, in a neutral range, with 0.001 molar ammonium acetate solution in water and acetonitrile as eluent (linear gradient from 10% acetonitrile to 95% acetonitrile). • ^[c] Log P value is determined by measurement of LC-UV, in an acidic range, with 0.1% phosphoric acid and acetonitrile as eluent (linear gradient from 10% acetonitrile to 95% acetonitrile). If more than one Log P value is available within the same method, all the values are given and separated by “+”. Calibration was done with straight-chain alkan2-ones (with 3 to 16 carbon atoms) with known Log P values (measurement of Log P values using retention times with linear interpolation between successive alkanones).

N#Cc1cncn1CC(F)(Cc1cccc(F)c1F)C1(Cl)CC1 (centres unmarked) [Example I-01, 1-[2-(1-chlorocyclopropyl)-3-(2,3-difluorophenyl)-2-fluorpropyl]-1H-imidazole-5-carbonitrile]
chromatographic logP: 2.98

N#Cc1cncn1CC(Cl)(Cc1cccc(F)c1F)C1(Cl)CC1 (centres unmarked) [Example I-02, 1-[2-chloro-2-(1-chlorocyclopropyl)-3-(2,3-difluorophenyl)propyl]-1H-imidazole-5-carbonitrile]
chromatographic logP: 3.25

From patent US20190218188A1, “NOVEL 5-SUBSTITUTED IMIDAZOLE DERIVATIVES” (Bayer CropScience Aktiengesellschaft, priority 2016, published 2019)
